In one data set the test system is 639-V. Put plainly: OncoPanel cell proliferation assay (10-day). It counts as cell-based, human. To be noted: for EC50 / GI50 / IC50: Homo sapiens, Bladder; for EC50: read-out: Cell Count EC50; for GI50: read-out: Cell Count GI50; for IC50: read-out: Cell Count IC50.
The next data set addresses PRMT1 (h) (Homo sapiens, UniProt Q99873). Put plainly: Epigenetic enzyme assay, Methyltransferases (MTs). The data set is classed as biochemical. To be noted: read-out: % Inhibition of Control Values.
The target of the next data set is T1, HDAC6 (h) (Homo sapiens, UniProt Q9UBN7).
T1 sequence (Q9UBN7 1-1215): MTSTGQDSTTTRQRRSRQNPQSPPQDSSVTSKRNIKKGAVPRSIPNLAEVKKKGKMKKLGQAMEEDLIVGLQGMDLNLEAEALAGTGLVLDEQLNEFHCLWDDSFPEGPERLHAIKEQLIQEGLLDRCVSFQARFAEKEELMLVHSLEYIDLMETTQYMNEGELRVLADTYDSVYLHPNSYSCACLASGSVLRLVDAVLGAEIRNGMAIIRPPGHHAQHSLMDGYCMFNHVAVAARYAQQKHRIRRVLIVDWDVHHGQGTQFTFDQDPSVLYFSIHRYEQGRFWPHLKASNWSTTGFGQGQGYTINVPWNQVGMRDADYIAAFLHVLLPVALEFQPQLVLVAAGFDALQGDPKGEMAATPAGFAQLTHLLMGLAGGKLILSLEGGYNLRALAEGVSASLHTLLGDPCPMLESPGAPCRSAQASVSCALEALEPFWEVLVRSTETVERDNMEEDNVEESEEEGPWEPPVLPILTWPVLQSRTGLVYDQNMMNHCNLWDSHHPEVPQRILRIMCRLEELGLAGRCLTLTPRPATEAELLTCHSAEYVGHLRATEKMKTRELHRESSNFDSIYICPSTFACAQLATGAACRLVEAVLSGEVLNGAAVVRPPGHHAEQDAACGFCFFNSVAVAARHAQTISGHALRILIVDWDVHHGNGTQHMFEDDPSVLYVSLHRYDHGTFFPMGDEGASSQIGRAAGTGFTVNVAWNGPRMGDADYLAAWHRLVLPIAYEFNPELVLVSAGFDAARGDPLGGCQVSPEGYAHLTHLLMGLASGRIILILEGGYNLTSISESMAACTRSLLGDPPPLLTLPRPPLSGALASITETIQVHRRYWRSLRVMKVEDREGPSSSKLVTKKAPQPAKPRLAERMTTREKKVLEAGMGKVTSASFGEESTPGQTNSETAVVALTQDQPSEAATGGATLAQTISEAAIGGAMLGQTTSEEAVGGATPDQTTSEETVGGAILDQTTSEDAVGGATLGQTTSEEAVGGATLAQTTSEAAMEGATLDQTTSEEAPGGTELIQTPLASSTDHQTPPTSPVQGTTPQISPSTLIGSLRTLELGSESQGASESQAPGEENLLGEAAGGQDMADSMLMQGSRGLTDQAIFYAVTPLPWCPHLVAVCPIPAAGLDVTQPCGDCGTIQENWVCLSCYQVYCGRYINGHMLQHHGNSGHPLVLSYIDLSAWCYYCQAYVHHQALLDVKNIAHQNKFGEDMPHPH
Briefly: Epigenetic enzyme assay, Histone deacetylase (HDACs). The data set is classed as biochemical. Conditions: read-out: % Inhibition of Control Values.

Another data set concerns the target T2, Myeloperoxidase (Homo sapiens, UniProt P05164).
T2 construct: Human PMN leukocytes; from tissue; host or cells: human PMN leukocytes
T2 sequence (P05164 49-745): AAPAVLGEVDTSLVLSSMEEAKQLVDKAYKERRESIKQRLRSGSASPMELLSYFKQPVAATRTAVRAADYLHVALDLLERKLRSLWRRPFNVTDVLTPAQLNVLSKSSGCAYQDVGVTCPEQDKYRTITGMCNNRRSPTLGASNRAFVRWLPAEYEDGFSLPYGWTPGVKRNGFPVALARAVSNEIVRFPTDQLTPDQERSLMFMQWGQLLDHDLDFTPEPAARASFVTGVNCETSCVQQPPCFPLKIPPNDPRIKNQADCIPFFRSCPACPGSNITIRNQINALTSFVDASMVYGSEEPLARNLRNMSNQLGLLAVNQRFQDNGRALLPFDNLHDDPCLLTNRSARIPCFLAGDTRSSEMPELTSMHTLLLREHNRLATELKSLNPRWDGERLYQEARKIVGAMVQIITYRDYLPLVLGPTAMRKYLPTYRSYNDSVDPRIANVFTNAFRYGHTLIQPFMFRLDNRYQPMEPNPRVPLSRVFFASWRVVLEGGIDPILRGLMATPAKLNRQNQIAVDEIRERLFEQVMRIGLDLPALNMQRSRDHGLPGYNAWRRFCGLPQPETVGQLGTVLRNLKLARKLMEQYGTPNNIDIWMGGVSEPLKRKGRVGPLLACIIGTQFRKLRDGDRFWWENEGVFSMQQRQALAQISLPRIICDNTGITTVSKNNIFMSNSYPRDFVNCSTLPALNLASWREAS
Briefly: Myeloperoxidase. The data set is classed as biochemical. As to the method:
(§1) The in vitro pharmacological studies were conducted by Eurofins PanLab (Taiwan) using the parameters shown in Table 13 with respect to appropriate literature references.

The next data set deals with T3, Xanthine Oxidase (Bos taurus, UniProt P80457).
T3 construct: Bovine buttermilk; from tissue; host or cells: bovine buttermilk
Put plainly: Xanthine Oxidase. It counts as biochemical, Bovine. Conditions: assay year 2015, read-out: % Control Response. The protocol:
as §1

The target in data set [1] is CYP2D6 (Dextromethorphan Substrate) (Homo sapiens, UniProt P10635). Briefly: Cytochrome P450 Inhibition (CYP panel). To be noted: CYP2D6 (dextromethorphan sub.); Human liver microsomes; 1 μM. In general terms: Liver microsomes are vesicles of endoplasmic reticulum, rich in cytochrome P450 enzymes.
The next data set deals with JMJD3 (h) (Homo sapiens, UniProt O15054). Put plainly: Epigenetic enzyme assay, Demethylases (KDMs). To be noted: for inhibition at 10 µM: read-out: % Inhibition of Control Values. The data set is classed as biochemical.
In data set [2] the target is T4, Nicotinamide N-methyltransferase (h) (Homo sapiens, UniProt P40261).
T4 sequence (P40261 1-264): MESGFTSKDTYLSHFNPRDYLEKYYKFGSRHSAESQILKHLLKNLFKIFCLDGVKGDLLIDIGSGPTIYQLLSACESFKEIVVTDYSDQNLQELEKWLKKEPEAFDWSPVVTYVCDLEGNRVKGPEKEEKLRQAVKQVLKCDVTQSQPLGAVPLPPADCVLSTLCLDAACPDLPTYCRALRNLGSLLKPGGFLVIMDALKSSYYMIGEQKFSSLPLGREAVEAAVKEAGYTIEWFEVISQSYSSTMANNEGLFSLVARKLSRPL
Put plainly: Epigenetic enzyme assay, Small molecule methyltransferases. It counts as biochemical. Conditions: read-out: % Inhibition of Control Values.

A further data set concerns the target MYST3(h) (Homo sapiens, UniProt Q92794). Put plainly: Epigenetic enzyme assay, Histone acetyltransferases (HATs). Conditions: read-out: % Inhibition of Control Values. It counts as biochemical.
[3] abbreviates: assay year 2014, read-out: % Control Response.
[4] abbreviates: assay year 2015, read-out: % Control Response.

The text below walks through data of patent publication US11331299B2, “Medicinal use of serrulatane diterpenes” (The University of Sydney, priority 2016, dated 2022).

Structures are written as SMILES. Where two headings read alike, the source gives them in different places.

PRMT1 (h), sequence (Q99873 whole entry): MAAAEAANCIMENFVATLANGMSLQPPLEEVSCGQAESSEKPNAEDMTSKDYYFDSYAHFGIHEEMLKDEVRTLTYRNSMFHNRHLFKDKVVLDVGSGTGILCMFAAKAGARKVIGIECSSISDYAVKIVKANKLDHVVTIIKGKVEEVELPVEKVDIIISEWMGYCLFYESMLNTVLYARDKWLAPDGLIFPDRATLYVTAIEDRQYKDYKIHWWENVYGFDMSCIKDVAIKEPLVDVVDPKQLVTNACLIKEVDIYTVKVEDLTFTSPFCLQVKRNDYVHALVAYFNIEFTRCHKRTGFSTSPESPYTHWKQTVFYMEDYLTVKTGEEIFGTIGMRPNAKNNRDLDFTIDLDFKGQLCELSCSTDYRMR
T3 sequence (P80457 whole entry): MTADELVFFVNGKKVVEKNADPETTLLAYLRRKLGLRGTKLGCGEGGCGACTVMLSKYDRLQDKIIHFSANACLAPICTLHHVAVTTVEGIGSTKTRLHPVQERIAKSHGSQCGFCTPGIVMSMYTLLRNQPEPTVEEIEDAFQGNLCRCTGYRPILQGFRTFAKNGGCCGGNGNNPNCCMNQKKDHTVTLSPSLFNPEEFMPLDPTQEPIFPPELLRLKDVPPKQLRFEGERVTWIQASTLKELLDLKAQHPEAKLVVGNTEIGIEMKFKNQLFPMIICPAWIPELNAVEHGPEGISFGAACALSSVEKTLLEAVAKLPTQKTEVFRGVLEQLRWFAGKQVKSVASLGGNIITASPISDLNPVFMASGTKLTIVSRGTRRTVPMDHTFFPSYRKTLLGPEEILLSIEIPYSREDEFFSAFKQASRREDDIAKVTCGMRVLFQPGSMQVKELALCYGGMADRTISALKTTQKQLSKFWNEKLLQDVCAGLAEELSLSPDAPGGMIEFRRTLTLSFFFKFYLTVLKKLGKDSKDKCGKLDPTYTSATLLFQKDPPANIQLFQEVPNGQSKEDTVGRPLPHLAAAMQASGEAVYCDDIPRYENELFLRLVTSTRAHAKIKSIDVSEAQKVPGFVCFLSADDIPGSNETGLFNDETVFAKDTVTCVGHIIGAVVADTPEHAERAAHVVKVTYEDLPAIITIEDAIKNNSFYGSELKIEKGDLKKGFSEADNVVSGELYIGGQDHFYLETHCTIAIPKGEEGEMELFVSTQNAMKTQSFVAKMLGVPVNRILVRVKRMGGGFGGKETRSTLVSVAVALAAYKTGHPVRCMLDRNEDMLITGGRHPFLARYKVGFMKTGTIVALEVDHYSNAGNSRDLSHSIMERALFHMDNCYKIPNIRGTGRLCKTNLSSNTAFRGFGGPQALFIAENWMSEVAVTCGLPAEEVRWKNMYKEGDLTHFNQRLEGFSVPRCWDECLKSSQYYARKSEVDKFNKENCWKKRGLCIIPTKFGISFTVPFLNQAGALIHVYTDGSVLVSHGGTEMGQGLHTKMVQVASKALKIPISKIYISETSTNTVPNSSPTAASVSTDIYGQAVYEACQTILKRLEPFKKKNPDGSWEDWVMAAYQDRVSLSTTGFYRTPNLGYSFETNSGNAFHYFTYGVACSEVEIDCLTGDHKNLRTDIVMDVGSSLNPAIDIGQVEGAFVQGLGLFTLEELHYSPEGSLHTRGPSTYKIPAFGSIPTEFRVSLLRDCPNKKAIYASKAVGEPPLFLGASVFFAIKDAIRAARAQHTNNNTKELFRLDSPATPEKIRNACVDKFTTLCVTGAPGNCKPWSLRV
JMJD3 (h), sequence (O15054 whole entry): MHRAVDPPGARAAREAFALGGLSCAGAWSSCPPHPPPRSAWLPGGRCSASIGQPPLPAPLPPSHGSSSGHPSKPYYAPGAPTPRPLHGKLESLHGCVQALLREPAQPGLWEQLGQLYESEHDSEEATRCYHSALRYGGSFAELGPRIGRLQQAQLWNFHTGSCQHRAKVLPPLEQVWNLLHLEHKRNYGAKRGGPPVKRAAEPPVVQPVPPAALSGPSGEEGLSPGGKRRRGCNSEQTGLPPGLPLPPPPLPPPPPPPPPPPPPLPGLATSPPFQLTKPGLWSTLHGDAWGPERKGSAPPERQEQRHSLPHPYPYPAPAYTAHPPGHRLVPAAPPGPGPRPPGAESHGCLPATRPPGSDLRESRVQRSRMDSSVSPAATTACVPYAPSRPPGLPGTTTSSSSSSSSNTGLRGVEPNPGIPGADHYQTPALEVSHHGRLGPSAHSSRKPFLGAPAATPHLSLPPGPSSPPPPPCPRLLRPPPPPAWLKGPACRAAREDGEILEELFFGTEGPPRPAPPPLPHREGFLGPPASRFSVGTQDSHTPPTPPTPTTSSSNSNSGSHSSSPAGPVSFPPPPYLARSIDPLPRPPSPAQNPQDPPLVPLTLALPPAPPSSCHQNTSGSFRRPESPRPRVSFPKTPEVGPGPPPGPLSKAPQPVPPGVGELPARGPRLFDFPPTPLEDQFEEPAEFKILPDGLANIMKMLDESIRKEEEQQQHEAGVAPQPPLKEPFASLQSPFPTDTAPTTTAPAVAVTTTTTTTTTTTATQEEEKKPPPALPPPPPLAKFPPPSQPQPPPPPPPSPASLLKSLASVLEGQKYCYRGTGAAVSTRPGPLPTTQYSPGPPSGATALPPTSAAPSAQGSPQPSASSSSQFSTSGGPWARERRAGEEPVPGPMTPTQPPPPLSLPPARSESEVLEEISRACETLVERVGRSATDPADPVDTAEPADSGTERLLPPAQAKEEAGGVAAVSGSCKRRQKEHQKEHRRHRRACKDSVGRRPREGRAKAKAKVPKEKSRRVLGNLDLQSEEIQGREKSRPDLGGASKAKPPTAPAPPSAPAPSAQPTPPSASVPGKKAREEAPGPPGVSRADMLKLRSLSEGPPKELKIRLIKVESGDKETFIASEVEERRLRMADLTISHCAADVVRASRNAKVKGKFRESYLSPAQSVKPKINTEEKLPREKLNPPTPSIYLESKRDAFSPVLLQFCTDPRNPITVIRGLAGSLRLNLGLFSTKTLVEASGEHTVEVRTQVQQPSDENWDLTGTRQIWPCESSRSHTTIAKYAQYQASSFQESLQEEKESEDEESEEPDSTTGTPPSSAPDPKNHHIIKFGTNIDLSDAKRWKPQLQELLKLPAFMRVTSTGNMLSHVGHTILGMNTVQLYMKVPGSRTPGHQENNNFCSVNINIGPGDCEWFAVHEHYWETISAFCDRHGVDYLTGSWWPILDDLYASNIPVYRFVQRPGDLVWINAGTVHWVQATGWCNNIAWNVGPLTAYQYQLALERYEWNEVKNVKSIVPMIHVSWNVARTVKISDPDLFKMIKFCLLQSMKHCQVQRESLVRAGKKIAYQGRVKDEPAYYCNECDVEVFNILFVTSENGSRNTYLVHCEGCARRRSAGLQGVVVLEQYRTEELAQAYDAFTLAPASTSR
CYP2D6 (Dextromethorphan Substrate), sequence (P10635 whole entry): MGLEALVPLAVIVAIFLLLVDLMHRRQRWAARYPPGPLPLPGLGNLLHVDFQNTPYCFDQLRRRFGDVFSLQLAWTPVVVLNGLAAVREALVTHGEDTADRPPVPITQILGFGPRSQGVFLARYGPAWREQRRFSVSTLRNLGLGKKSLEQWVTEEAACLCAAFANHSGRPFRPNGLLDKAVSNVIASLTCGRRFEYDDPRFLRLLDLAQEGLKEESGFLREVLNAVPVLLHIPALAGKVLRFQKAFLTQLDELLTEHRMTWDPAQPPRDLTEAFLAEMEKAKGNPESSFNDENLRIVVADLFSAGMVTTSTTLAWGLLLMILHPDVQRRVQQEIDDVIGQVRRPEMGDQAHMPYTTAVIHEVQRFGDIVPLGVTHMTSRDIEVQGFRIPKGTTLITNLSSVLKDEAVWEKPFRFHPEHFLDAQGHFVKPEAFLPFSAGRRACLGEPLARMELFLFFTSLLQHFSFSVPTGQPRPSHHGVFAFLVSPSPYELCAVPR

As usually defined, the EC50 is the midpoint of the concentration-response curve. The GI50 is the concentration that inhibits growth by half. As usually defined, the IC50 is the concentration that gives 50% inhibition. Broadly, the inhibition is the relative decrease from the control value, in per cent. On to `CC(C)=CCC[C@H](CO)[C@@H]1CC[C@@H](C)c2c1cc(C)c(O)c2O` [Compound 1, 7,8,18-trihydroxyserrulat-14-ene], for which the “Relative cell count (%) Mean” value in the data set on 639-V (3.00E+00 microM) was 15.8%; in the data set on 639-V (3.00E+01 microM) it was 0.0%; with 639-V (3.01E−01 microM), 92.6%; in the data set on 639-V (3.01E−02 microM), 103.6%; with 639-V (3.02E−03 microM), 96.1%; in the data set on 639-V (9.49E+00 microM) it was 0.3%. Besides, the “Relative cell count (%) Mean” value is 91.9% in the data set on 639-V (9.51E−01 microM), 91.6% with 639-V (9.52E−02 microM), 101.2% with 639-V (9.53E−03 microM) and 92.0% in the data set with 639-V (9.55E−04 microM). For the same compound, the EC50 with 639-V turned out to be 2.01 µM. Moreover, the GI50 in the data set on 639-V worked out at 2.01 µM. In addition, the IC50 is 2.01 µM in the data set on 639-V and 14 µM on JMJD3 (h) (Table 11, inhibition/concentration-response curve). Moreover, the inhibition at 10 µM amounted to 16% on PRMT1 (h); 12% on HDAC6 (h); 91% at JMJD3 (h) (10 μM); 13% in data set [2]; 18% on MYST3(h). The “% Control Response” value on Myeloperoxidase (10 μM, assay year 2014) is reported as “inhibited the activity”. Also, the remaining activity at 10 µM at Myeloperoxidase (setting [3]) was found to be 52%; at Myeloperoxidase (setting [4]) it was 27%; on Xanthine Oxidase, 14%. Besides, the “% Inhibition of Control Values” in [1] is 13%; on JMJD3 (h) (10 μM), “significant inhibitory activity”.

Consider `CC(C)=CCC[C@H](C)[C@@H]1CC[C@@H](C)c2c1cc(C)c(O)c2O` [Compound 4, 7,8-dihydroxyserrulat-14-ene], for which, in the data set with 639-V, the EC50 was 12 µM, the GI50 is 12 µM and the IC50 turned out to be 12 µM. In addition, the “% Inhibition of Control Values” in data set [1] came to 21%.

With `CC(C)=CCC[C@@H]1COc2c(C)cc(O)c3c2[C@H]1CC[C@H]3C` [Compound 3, 5,18-epoxy-8-hydroxyserrulat-14-ene], the inhibition at 10 µM on PRMT1 (h) was -1%; at HDAC6 (h), -18%; at JMJD3 (h) (10 μM), 11%; in data set [2], -2%; at MYST3(h), 3%. Also, the remaining activity at 10 µM is -7% on Myeloperoxidase (setting [4]) and 27% at Xanthine Oxidase.

For `CC(C)=CCC[C@@H]1C(O)Oc2c(C)cc(O)c3c2[C@H]1CC[C@H]3C` (stereo partly drawn) [Compound 2, 5,18-epoxyserrulat-14-en-8,18-diol], the half-maximal effective concentration (EC50) in the data set with 639-V stood at 6.54 µM. In addition, the GI50 with 639-V stood at 7.98 µM. In the data set on 639-V, the IC50 was 8 µM. Further, the inhibition at 10 µM is 26% at PRMT1 (h); 2% at HDAC6 (h); 9% on JMJD3 (h) (10 μM); -2% in [2]; 11% on MYST3(h). In addition, the remaining activity at 10 µM was determined as 5% at Myeloperoxidase (setting [3]), 1% on Myeloperoxidase (setting [4]) and 20% on Xanthine Oxidase. The “% Inhibition of Control Values” in [1] was 18%.
